PubChem BioAssay AID1963872 (Molecular Pharmacology Branch, DTP, NCI, 2024)

Test system: KRAS patient-derived spheroids with HUVEC/MSC, viability
Experiment: Anticancer human tumor 519858-162-T-J1-PDC patient-derived colon adenocarcinoma cell line growth inhibition [KRAS2]
Settings: for IC50: curve of first compound; for viability, T/C: stronger effect = lower value; active = viability on the fitted dose curve at most 10% of control; inactive = the rest
Text: Multicellular complex tumor spheroid response to RAS pathway inhibitors in combination with a targeted agents in patient-derived cell lines with oncogenic KRAS variants from multiple cancer types
A high-throughput screen of multi-cell type tumor spheroids was designed to identify active combinations of targeted small molecules and KRAS pathway inhibitors. Complex spheroids include a stromal component modeled by human endothelial cells (HUVEC) and fibroblasts modeled by human mesenchymal stem cells (MSCs). The concentration ranges selected for each drug and investigational agent were based upon clinically achievable concentrations if the clinical Cmax of the agent was known.
Compounds. The drugs and investigational agents: BI-3406 (NSC825286), BAY-293 (NSC824723), batoprotafib (TNO155; NSC825523), sotorasib (AMG 510; NSC818433), MRTX1257 (NSC819558), elimusertib (BAY 1895344; NSC800525), molibresib (GSK525762; NSC774829), temuterkib (LY3214996; NSC803410), venetoclax (NSC766270), alisertib (NSC759677), olaparib (NSC753686), talazoparib (NSC767125), erdafitinib (NSC781556), ipatasertib (NSC767898), cabozantinib (NSC761068), nintedanib (NSC756659), abemaciclib (NSC768073), docetaxel (NSC628503), trametinib (NSC758246), and sapanisertib (NSC764658) were obtained from the National Cancer Institute (NCI) Developmental Therapeutics Program Chemical Repository. The FDA-approved anticancer drug set is available from the Developmental Therapeutics Program. […] The stock solutions were prepared in dimethyl sulfoxide (DMSO, Sigma-Aldrich, St. Louis, MO, cat. D2650) at 800-fold the tested concentration and stored at -70 degrees C prior to their use. All drugs and investigational agents were tested over a range starting from a high concentration at or near the clinical Cmax and decreasing in half-log increments. If the clinical Cmax for an agent had not been determined, the highest concentration tested was 10 microM.
Cell Culture. All cells were maintained in an incubator at 37 degrees C and 5% CO2 with 95% humidity. The PDC lines were cultured according to standard operating procedures established by the NCI PDMR (https://pdmr.cancer.gov/sops/default.htm). Briefly, all PDCs were thawed and cultured in Matrigel-coated flasks prepared with a working solution of 1X Ham's F-12 nutrient mix, without supplementation (Invitrogen, Waltham, MA, cat. 11765054), 100 U/mL penicillin-streptomycin (Invitrogen, cat. 15140122), and 2.5% Matrigel (Corning Inc., Corning, NY, cat. 354248) for the first three passages. All PDCs were cultured in complete DMEM/F-12 media containing advanced DMEM/F-12 (Invitrogen, cat. 12634028), 4.9% defined fetal bovine serum, heat inactivated (HyClone Laboratories Inc., Logan, UT, cat. SH30070.03HI), 389 ng/mL hydrocortisone (Sigma-Aldrich, cat. H4001), 9.7 ng/mL human EGF recombinant protein (Invitrogen, cat. PHG0313), 23.4 microg/mL adenine (Sigma-Aldrich, cat. A2786), 97.3 U/mL penicillin-streptomycin (Invitrogen, cat. 15140122), 1.9 mM L-glutamine (Invitrogen, cat. 25030081), and 9.7 microM Y-27632 dihydrochloride (Tocris Bioscience, Bristol, United Kingdom, cat. 1254). The PDCs were cultured in complete DMEM/F12 media without 9.7 microM Y-27632 dihydrochloride for at least two passages prior to the screen. The established cell line HOP-62 was cultured in RPMI 1640 medium, HEPES (Invitrogen, cat. 22400105) with 10% defined fetal bovine serum (HyClone Laboratories Inc., cat. SH30070.03) and 2 mM L-glutamine (Invitrogen, cat. 25030081). The pooled donor HUVEC were cultured in endothelial cell growth medium 2 (PromoCell, Heidelberg, Germany, cat. C-22011) and the hMSC were cultured in mesenchymal stem cell growth medium 2 (PromoCell, cat. C-28009). For all experiments, HUVEC and hMSC were used at passages </=5, while the malignant cell lines were used at passages </=15. […]

[1] = second compound 0.1 µM, first compound 0.0316 µM
[2] = second compound 0.1 µM, first compound 0.1 µM
[3] = second compound 0.1 µM, first compound 0.316 µM
[4] = second compound 0.1 µM, first compound 1 µM
[5] = second compound 0.1 µM, first compound 3.16 µM
[6] = second compound 0.1 µM, first compound 10 µM
[7] = second compound 0.316 µM, first compound 0.0316 µM
[8] = second compound 0.316 µM, first compound 0.1 µM
[9] = second compound 0.316 µM, first compound 0.316 µM
[10] = second compound 0.316 µM, first compound 1 µM
[11] = second compound 0.316 µM, first compound 3.16 µM
[12] = second compound 0.316 µM, first compound 10 µM
[13] = second compound 1 µM, first compound 0.0316 µM
[14] = second compound 1 µM, first compound 0.1 µM
[15] = second compound 1 µM, first compound 0.316 µM
[16] = second compound 1 µM, first compound 1 µM
[17] = second compound 1 µM, first compound 3.16 µM
[18] = second compound 1 µM, first compound 10 µM
[19] = second compound 3.16 µM, first compound 0.0316 µM
[20] = second compound 3.16 µM, first compound 0.1 µM
[21] = second compound 3.16 µM, first compound 0.316 µM
[22] = second compound 3.16 µM, first compound 1 µM
[23] = second compound 3.16 µM, first compound 3.16 µM
[24] = second compound 3.16 µM, first compound 10 µM
[25] = second compound 10 µM, first compound 0.0316 µM
[26] = second compound 10 µM, first compound 0.1 µM
[27] = second compound 10 µM, first compound 0.316 µM
[28] = second compound 10 µM, first compound 1 µM
[29] = second compound 10 µM, first compound 3.16 µM
[30] = second compound 10 µM, first compound 10 µM
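Note: compound exposure lasted seven days before readout.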

COC(=O)c1ccc2c(C(=Nc3ccc(N(C)C(=O)CN4CCN(C)CC4)cc3)c3ccccc3)c(O)[nH]c2c1 + C=CC(=O)N1CCN(c2nc(=O)n(-c3c(C)ccnc3C(C)C)c3nc(-c4c(O)cccc4F)c(F)cc23)C(C)C1
inactive: viability, T/C [1] 121% | viability, T/C [2] 86.2% | viability, T/C [3] 85.9% | viability, T/C [4] 101% | viability, T/C [5] 102% | viability, T/C [6] 91.1% | viability, T/C [7] 106% | viability, T/C [8] 83.8% | viability, T/C [9] 77.8% | viability, T/C [10] 76.2% | viability, T/C [11] 89.4% | viability, T/C [12] 94.1% | viability, T/C [13] 89.4% | viability, T/C [14] 67.9% | viability, T/C [15] 111% | viability, T/C [16] 90.7% | viability, T/C [17] 76% | viability, T/C [18] 60.1% | viability, T/C [19] 96.9% | viability, T/C [20] 75.1% | viability, T/C [21] 82.8% | viability, T/C [22] 66.3% | viability, T/C [23] 70.7% | viability, T/C [24] 84.2% | viability, T/C [25] 72.9% | viability, T/C [26] 74.3% | viability, T/C [27] 60.1% | viability, T/C [28] 80.4% | viability, T/C [29] 101% | viability, T/C [30] 75.3%
> 10 µM: IC50 (second compound 0.1 µM) | IC50 (second compound 0.316 µM) | IC50 (second compound 1 µM) | IC50 (second compound 3.16 µM) | IC50 (second compound 10 µM)

O=C(c1cc(Cc2n[nH]c(=O)c3ccccc23)ccc1F)N1CCN(C(=O)C2CC2)CC1 + C=CC(=O)N1CCN(c2nc(=O)n(-c3c(C)ccnc3C(C)C)c3nc(-c4c(O)cccc4F)c(F)cc23)C(C)C1
> 10 µM: IC50 (second compound 0.1 µM) | IC50 (second compound 0.316 µM) | IC50 (second compound 1 µM) | IC50 (second compound 3.16 µM) | IC50 (second compound 10 µM)
inactive: viability, T/C [1] 71.4% | viability, T/C [2] 111% | viability, T/C [3] 96.3% | viability, T/C [4] 120% | viability, T/C [5] 123% | viability, T/C [6] 110% | viability, T/C [7] 89.2% | viability, T/C [8] 91.2% | viability, T/C [9] 95.1% | viability, T/C [10] 97.4% | viability, T/C [11] 91.9% | viability, T/C [12] 111% | viability, T/C [13] 73.9% | viability, T/C [14] 98.4% | viability, T/C [15] 80.8% | viability, T/C [16] 100% | viability, T/C [17] 89.3% | viability, T/C [18] 108% | viability, T/C [19] 88.8% | viability, T/C [20] 92.5% | viability, T/C [21] 84% | viability, T/C [22] 95% | viability, T/C [23] 96.8% | viability, T/C [24] 120% | viability, T/C [25] 106% | viability, T/C [26] 106% | viability, T/C [27] 72.5% | viability, T/C [28] 83.8% | viability, T/C [29] 86.1% | viability, T/C [30] 72.7%
